Drawing on article PMC12316034, “Tetrahydromagnolol induces autophagic cell death by targeting the m^6A reader protein YTHDF2 and enhances the efficacy of anti-PD-1 immunotherapy in pancreatic cancer cells” (Theranostics, 2025), this text covers Kd for one compound.

This assay addresses T1, YTHDF2 (YTH N6-methyladenosine RNA binding protein F2) (Homo sapiens, UniProt Q9Y5A9).
T1 construct: recombinant protein of YTHDF2 (NCBI: 51441)
T1 sequence (Q9Y5A9 2-579): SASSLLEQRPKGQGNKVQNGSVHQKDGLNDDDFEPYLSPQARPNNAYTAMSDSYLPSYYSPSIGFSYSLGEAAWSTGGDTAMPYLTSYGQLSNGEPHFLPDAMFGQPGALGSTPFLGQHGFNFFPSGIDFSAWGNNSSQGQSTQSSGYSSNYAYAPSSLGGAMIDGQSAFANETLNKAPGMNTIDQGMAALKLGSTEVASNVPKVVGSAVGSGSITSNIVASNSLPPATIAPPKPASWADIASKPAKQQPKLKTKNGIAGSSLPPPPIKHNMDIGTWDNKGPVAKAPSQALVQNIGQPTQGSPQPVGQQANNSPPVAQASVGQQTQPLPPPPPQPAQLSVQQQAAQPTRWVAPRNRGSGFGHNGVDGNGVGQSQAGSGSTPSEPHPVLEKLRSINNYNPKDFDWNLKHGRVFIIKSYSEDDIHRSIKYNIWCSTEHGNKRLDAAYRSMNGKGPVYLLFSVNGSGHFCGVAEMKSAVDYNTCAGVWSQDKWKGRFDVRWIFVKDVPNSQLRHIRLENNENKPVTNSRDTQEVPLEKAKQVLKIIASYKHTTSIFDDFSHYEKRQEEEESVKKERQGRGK
Nature of the assay: SPR on immobilised recombinant YTHDF2; also ITC, THM-bead pull-down, CETSA, LC-MS/MS.

By Kd is commonly meant a measure of binding affinity in units of concentration. On to `CCCc1ccc(O)c(-c2cc(CCC)ccc2O)c1` [Tetrahydromagnolol], for which the Kd is 22 µM.
